Results taken from patent publication US20220395472A1 (Dermavant Sciences GmbH, priority 2021, published 2022).

System: adults with plaque psoriasis
Assay: Long-term open-label extension study (PSOARING 3): Physician Global Assessment (PGA), treatment episodes, treatment success, remittive effect
Type: in vivo, human
Experimental: This extension study consisted of up to 40 weeks of treatment and a 4 week, safety follow up period.
At the completion of the Week 12 visit of the DB, pivotal Phase 3 study, eligibility of the subjects opting to enroll in this extension study was confirmed. Study visits during the treatment period for all subjects occurred every 4 weeks (±3 days). A phone call was performed at Week 2 (Day 15). Unscheduled visits may have occurred, as needed. Subjects who withdrew from this study before Week 40 returned to the study center for an Early Termination visit. The total duration of this extension study participation was 44 weeks. Subjects in this study were treated as follows based on their PGA score from the Week 12 visit in the DB, pivotal Phase 3 study (Study DMVT 505 3001 or Study DMVT 505 3002).
The PGA was used to assess the primary efficacy endpoint in this study. The PGA is a clinical tool for assessing the current state/severity of a subject's psoriasis at a given time point. It is a static, 5 point, morphological assessment of overall disease severity, as determined by the Investigator, using the clinical characteristics of erythema, scaling, and plaque thickness/elevation as guidelines; higher PGA scores represent more severe disease (0=clear, 1=almost clear, 2=mild, 3=moderate, and 4=severe). The BSA affected was not considered in scoring of the PGA. Variations of the PGA are frequently used in clinical studies because it is a simple assessment, similar to those used in clinical practice. The PGA was performed first, prior to the % BSA, PASI, and LTS assessments.
Time to event parameters, such as the time from treatment success to subsequent worsening (PGA≥2) or duration of treatment episode, were summarized by the Kaplan Meier product limit method using OC.

[1] = Week 40, LOCF, Tapinarof (Pivotal) group
[2] = Week 40, OC, Vehicle (Pivotal) group
[3] = Week 40 LOCF, Tapinarof (Pivotal)
[4] = Week 40 LOCF, Vehicle (Pivotal)
[5] = Week 40 OC, Tapinarof (Pivotal)

`CC(C)c1c(O)cc(/C=C/c2ccccc2)cc1O` [Tapinarof, 3,5-Dihydroxy-4-isopropyl-trans-stilbene] was tested, and the “PGA Change from Baseline: Improved by 4” value (Week 16 OC, Vehicle (Pivotal)) was 1 (0.5) n (%), the “PGA Change from Baseline: No Change” value (Week 16 OC, Vehicle (Pivotal)) was 59 (28.2) n (%) and the “PGA Change from Baseline: Worsened by 1” value (Week 16 OC, Vehicle (Pivotal)) was 6 (2.9) n (%). The “PGA Change from Baseline: Worsened by 2” value (Week 16 OC, Vehicle (Pivotal)) was 2 (1.0) n (%), the “PGA Change from Baseline: Worsened by 3” value (Week 16 OC, Vehicle (Pivotal)) was 0 (0.0) n (%) and the “PGA Change from Baseline: Worsened by 4” value (Week 16 OC, Vehicle (Pivotal)) was 0 (0.0) n (%). For the same compound, the “Subjects with PGA=0” value [1] was 15.4%, the “Subjects with PGA=1” value [1] was 30.0% and the “Subjects with PGA=1” value (Week 40, LOCF, Vehicle (Pivotal) group) was 27.4%. The “Subjects with PGA=1” value (Week 40, OC, Tapinarof (Pivotal) group) was 30.1%, the “Subjects with PGA=0” value [2] was 23.9% and the “Subjects with PGA=1” value [2] was 31.9%. For the same compound, the “PGA 0 - Clear” value (Week 40 LOCF, Overall) was 118 (15.8) n (%), the “PGA 1 - Almost Clear” value (Week 40 LOCF, Overall) was 217 (29.1) n (%) and the “PGA 2 - Mild” value (Week 40 LOCF, Overall) was 253 (34.0) n (%). The “PGA 3 - Moderate” value (Week 40 LOCF, Overall) was 146 (19.6) n (%), the “PGA 4 - Severe” value (Week 40 LOCF, Overall) was 11 (1.5) n (%) and the “PGA Change from Baseline: Improved by 1” value (Week 40 LOCF, Overall) was 194 (26.1) n (%). The “PGA Change from Baseline: Improved by 2” value (Week 40 LOCF, Overall) was 88 (11.9) n (%), the “PGA Change from Baseline: Improved by 3” value (Week 40 LOCF, Overall) was 27 (3.6) n (%) and the “PGA Change from Baseline: Improved by 4” value (Week 40 LOCF, Overall) was 2 (0.3) n (%). The “PGA Change from Baseline: No Change” value (Week 40 LOCF, Overall) was 282 (38.0) n (%), the “PGA Change from Baseline: Worsened by 2” value (Week 40 LOCF, Overall) was 37 (5.0) n (%) and the “PGA Change from Baseline: Worsened by 3” value (Week 40 LOCF, Overall) was 4 (0.5) n (%). For the same compound, the “PGA Change from Baseline: Worsened by 4” value (Week 40 LOCF, Overall) was 0 (0.0) n (%), the “PGA 0 - Clear” value [3] was 76 (15.4) n (%) and the “PGA 1 - Almost Clear” value [3] was 148 (30.0) n (%). For the same compound, the “PGA 2 - Mild” value [3] was 171 (34.7) n (%), the “PGA 3 - Moderate” value [3] was 91 (18.5) n (%) and the “PGA 4 - Severe” value [3] was 7 (1.4) n (%). For the same compound, the “PGA Change from Baseline: Improved by 1” value [3] was 110 (22.4) n (%), the “PGA Change from Baseline: Improved by 2” value [3] was 31 (6.3) n (%) and the “PGA Change from Baseline: Improved by 3” value [3] was 5 (1.0) n (%). The “PGA Change from Baseline: Improved by 4” value [3] was 1 (0.2) n (%), the “PGA Change from Baseline: No Change” value [3] was 211 (43.0) n (%) and the “PGA Change from Baseline: Worsened by 1” value [3] was 95 (19.3) n (%). The “PGA Change from Baseline: Worsened by 2” value [3] was 34 (6.9) n (%), the “PGA Change from Baseline: Worsened by 3” value [3] was 4 (0.8) n (%) and the “PGA Change from Baseline: Worsened by 4” value [3] was 0 (0.0) n (%). For the same compound, the “PGA 0 - Clear” value [4] was 42 (16.7) n (%), the “PGA 1 - Almost Clear” value [4] was 69 (27.4) n (%) and the “PGA 2 - Mild” value [4] was 82 (32.5) n (%). The “PGA 3 - Moderate” value [4] was 55 (21.8) n (%), the “PGA 4 - Severe” value [4] was 4 (1.6) n (%) and the “PGA Change from Baseline: Improved by 1” value [4] was 84 (33.5) n (%). The “PGA Change from Baseline: Improved by 2” value [4] was 57 (22.7) n (%), the “PGA Change from Baseline: Improved by 3” value [4] was 22 (8.8) n (%) and the “PGA Change from Baseline: Improved by 4” value [4] was 1 (0.4) n (%). The “PGA Change from Baseline: No Change” value [4] was 71 (28.3) n (%), the “PGA Change from Baseline: Worsened by 1” value [4] was 13 (5.2) n (%) and the “PGA Change from Baseline: Worsened by 2” value [4] was 3 (1.2) n (%). The “PGA Change from Baseline: Worsened by 3” value [4] was 0 (0.0) n (%), the “PGA Change from Baseline: Worsened by 4” value [4] was 0 (0.0) n (%) and the “PGA 0 - Clear” value (Week 40 OC, Overall) was 68 (19.5) n (%). For the same compound, the “PGA 1 - Almost Clear” value (Week 40 OC, Overall) was 107 (30.7) n (%), the “PGA 2 - Mild” value (Week 40 OC, Overall) was 116 (33.2) n (%) and the “PGA 3 - Moderate” value (Week 40 OC, Overall) was 57 (16.3) n (%). For the same compound, the “PGA 4 - Severe” value (Week 40 OC, Overall) was 1 (0.3) n (%), the “PGA Change from Baseline: Improved by 1” value (Week 40 OC, Overall) was 99 (28.4) n (%) and the “PGA Change from Baseline: Improved by 2” value (Week 40 OC, Overall) was 46 (13.2) n (%). For the same compound, the “PGA Change from Baseline: Improved by 3” value (Week 40 OC, Overall) was 19 (5.4) n (%), the “PGA Change from Baseline: Improved by 4” value (Week 40 OC, Overall) was 1 (0.3) n (%) and the “PGA Change from Baseline: No Change” value (Week 40 OC, Overall) was 105 (30.1) n (%). For the same compound, the “PGA Change from Baseline: Worsened by 1” value (Week 40 OC, Overall) was 55 (15.8) n (%), the “PGA Change from Baseline: Worsened by 2” value (Week 40 OC, Overall) was 21 (6.0) n (%) and the “PGA Change from Baseline: Worsened by 3” value (Week 40 OC, Overall) was 3 (0.9) n (%). For the same compound, the “PGA Change from Baseline: Worsened by 4” value (Week 40 OC, Overall) was 0 (0.0) n (%), the “PGA 0 - Clear” value [5] was 41 (17.4) n (%) and the “PGA 1 - Almost Clear” value [5] was 71 (30.1) n (%). The “PGA 2 - Mild” value [5] was 81 (34.3) n (%), the “PGA 3 - Moderate” value [5] was 42 (17.8) n (%) and the “PGA 4 - Severe” value [5] was 1 (0.4) n (%). The “PGA Change from Baseline: Improved by 1” value [5] was 58 (24.6) n (%), the “PGA Change from Baseline: Improved by 2” value [5] was 19 (8.1) n (%) and the “PGA Change from Baseline: Improved by 3” value [5] was 2 (0.8) n (%). The “PGA Change from Baseline: Improved by 4” value [5] was 0 (0.0) n (%), the “PGA Change from Baseline: No Change” value [5] was 86 (36.4) n (%) and the “PGA Change from Baseline: Worsened by 1” value [5] was 48 (20.3) n (%). For the same compound, the “PGA Change from Baseline: Worsened by 2” value [5] was 20 (8.5) n (%), the “PGA Change from Baseline: Worsened by 3” value [5] was 3 (1.3) n (%) and the “PGA Change from Baseline: Worsened by 4” value [5] was 0 (0.0) n (%). For the same compound, the “PGA 0 - Clear” value (Week 40 OC, Vehicle (Pivotal)) was 27 (23.9) n (%) and the “PGA 1 - Almost Clear” value (Week 40 OC, Vehicle (Pivotal)) was 36 (31.9) n (%).
